Legend:
Test in all cases: cells
Type in all cases: cell-based, human
[1] = test system: NCI-H460; details: read-out: GI50 NCI-H460 lung
[2] = test system: HCT-15; details: read-out: GI50 HCT-15 colorectal
[3] = test system: HT29; details: read-out: GI50 HT29 colorectal
[4] = test system: MCF7; details: read-out: GI50 MCF7 breast
[5] = test system: SF-268; details: read-out: GI50 SF-268 CNS
[6] = test system: DU-145; details: read-out: GI50 DU-145 prostate
[7] = test system: A549; details: read-out: GI50 A549 lung (+p53)
[8] = test system: H1299; details: read-out: GI50 H1299 lung (−p53)
[9] = test system: Hep3b; details: read-out: GI50 Hep3b liver
[10] = test system: SKOV3; details: read-out: GI50 SKOV3 ovary

| SMILES | GI50 [1] | GI50 [2] | GI50 [3] | GI50 [4] | GI50 [5] | GI50 [6] | GI50 [7] | GI50 [8] | GI50 [9] | GI50 [10] |
| --- | --- | --- | --- | --- | --- | --- | --- | --- | --- | --- |
| CON(CCCCc1ccc(N(CCCl)CCCl)cc1)C1OC(CO)C(O)C(O)C1O (mixture of isomers) [Compound 10] | 9.5 ± 0.7 µM | 0.97 ± 0.07 µM | 0.6 ± 0.9 µM | 9.3 ± 0.7 µM | 3.1 ± 0.1 µM | 5.8 ± 0.1 µM | 3.4 µM | 0.53 ± 0.05 µM | 4.4 ± 0.3 µM | 3 ± 0.1 µM |
| CON(CCCCc1ccc(N(CCCl)CCCl)cc1)C1OC(CO)C(O)C(O)C1O (mixture of isomers) [Compound 11] | 10.4 ± 0.8 µM | 1.7 ± 0.1 µM | 2.2 ± 0.1 µM | 9 ± 0.7 µM | 3.2 ± 0.1 µM | 6 ± 0.1 µM | 3.5 ± 0.2 µM | 1.3 ± 0.1 µM | 2.5 ± 0.1 µM | 3.1 ± 0.1 µM |
| CON(CCCCc1ccc(N(CCCl)CCCl)cc1)C1OC(CO)C(O)C(O)C1O (mixture of isomers) [Compound 12] | 6.6 ± 0.4 µM | 1.4 ± 0.1 µM | 1.6 ± 0.2 µM | 6.5 ± 0.1 µM | 1.9 ± 0.1 µM | 4.1 ± 0.2 µM | 2.4 ± 0.1 µM | 0.91 ± 0.05 µM | 1.7 ± 0.1 µM | 1.9 ± 0.1 µM |
| CON(CCCCc1ccc(N(CCCl)CCCl)cc1)C1OC(CO)C(O)C(O)C1O (mixture of isomers) [Compound 13] | 7.9 ± 0.5 µM | 1.4 ± 0.1 µM | 2.1 ± 0.2 µM | 7.9 ± 0.8 µM | 2.3 ± 0.1 µM | 4.1 ± 0.1 µM | 3.1 ± 0.2 µM | 1.3 ± 0.1 µM | 2 ± 0.1 µM | 2.5 ± 0.1 µM |
| CON(CCCCc1ccc(N(CCCl)CCCl)cc1)C1OCC(O)C(O)C1O (mixture of isomers) [Compound 14] | 5 ± 0.4 µM | 0.9 ± 0.04 µM | 1.5 ± 0.2 µM | 4.6 ± 0.1 µM | 1.8 ± 0.1 µM | 3.3 ± 0.1 µM | 2 ± 0.1 µM | 0.73 ± 0.03 µM | 1.6 ± 0.1 µM | 2 ± 0.1 µM |
| CON(CCCCc1ccc(N(CCCl)CCCl)cc1)C1OCC(O)C(O)C1O (mixture of isomers) [Compound 15] | 6.1 ± 0.5 µM | 1 ± 0.05 µM | 1.9 ± 0.1 µM | 5.4 ± 0.1 µM | 1.9 ± 0.1 µM | 3.6 ± 0.1 µM | 2.3 ± 0.2 µM | 0.84 ± 0.04 µM | 1.9 ± 0.1 µM | 2.2 ± 0.1 µM |
| CON(CCCCc1ccc(N(CCCl)CCCl)cc1)C1OC(CO)C(OC2OC(CO)C(O)C(O)C2O)C(O)C1O (mixture of isomers) [Compound 17] | 3.8 ± 0.3 µM | 2.3 ± 0.1 µM | 1.9 ± 0.1 µM | 1.7 ± 0.1 µM | 1.5 ± 0.1 µM | 1.8 ± 0.1 µM | 1.6 ± 0.1 µM | 1.8 ± 0.1 µM | 1.2 ± 0.1 µM | 1.8 ± 0.1 µM |
| CON(CCCCc1ccc(N(CCCl)CCCl)cc1)C1CC(O)C(O)C(C)O1 (mixture of isomers) [Compound 18] | 6.5 ± 0.4 µM | 1.3 ± 0.1 µM | 2.1 ± 0.09 µM | 6.3 ± 0.1 µM | 2.8 ± 0.1 µM | 4.3 ± 0.1 µM | 2.7 ± 0.2 µM | 1.1 ± 0.1 µM | 3.2 ± 0.1 µM | 3 ± 0.1 µM |
| CON(CCCCc1ccc(N(CCCl)CCCl)cc1)C1OC(C)C(O)C(O)C1O (mixture of isomers) [Compound 20] | 5.9 ± 0.3 µM | 0.82 ± 0.07 µM | 6.7 ± 0.3 µM | 3 ± 0.2 µM | 1.7 ± 0.1 µM | 4.1 ± 0.9 µM | 9.6 ± 0.4 µM | 3.5 ± 0.2 µM | 2.6 ± 0.2 µM | 1.7 ± 0.1 µM |
| CON(CCCCc1ccc(N(CCCl)CCCl)cc1)C1OC(C)C(O)C(O)C1O (mixture of isomers) [Compound 21] | 5.4 ± 0.3 µM | 1.4 ± 0.1 µM | 2.3 ± 0.1 µM | 0.78 ± 0.09 µM | 2 ± 0.1 µM | 3.8 ± 0.1 µM | 2.2 ± 0.1 µM | 1.2 ± 0.1 µM | 3 ± 0.1 µM | 1.8 ± 0.1 µM |
| CON(CCCCc1ccc(N(CCCl)CCCl)cc1)C1OC(C)C(OCc2ccccc2)C(OCc2ccccc2)C1OCc1ccccc1 (mixture of isomers) [Compound 22] | 15.8 ± 0.7 µM | 4.6 ± 0.2 µM | 7.5 ± 0.3 µM | 4 ± 1 µM | 5.7 ± 0.2 µM | 10 ± 0.4 µM | 6.4 ± 0.2 µM | 3.3 ± 0.2 µM | 9.5 ± 0.4 µM | 7.2 ± 0.4 µM |
| CON(CCCCc1ccc(N(CCCl)CCCl)cc1)C1OC(CO)C(O)C(O)C1O (mixture of isomers) [Compound 23] | 9.7 ± 0.8 µM | 2.4 ± 0.1 µM | 3.3 ± 0.4 µM | 1.3 ± 0.2 µM | 1.9 ± 0.5 µM | 5.6 ± 0.3 µM | 4.4 ± 0.4 µM | 1.3 ± 0.1 µM | 3.6 ± 0.3 µM | 3.4 ± 0.5 µM |
| CON(CCCCc1ccc(N(CCCl)CCCl)cc1)C1OC(CO)C(O)C(O)C1O (mixture of isomers) [Compound 24] | 10.4 ± 0.7 µM | 2.3 ± 0.3 µM | 3.7 ± 0.5 µM | 1.3 ± 0.1 µM | 2 ± 0.4 µM | 5.5 ± 0.2 µM | 4.8 ± 0.4 µM | 1.4 ± 0.1 µM | 3.8 ± 0.3 µM | 4.1 ± 0.6 µM |
| CON(CCCCc1ccc(N(CCCl)CCCl)cc1)C1CC(O)C(O)C(CO)O1 (mixture of isomers) [Compound 25] | 6.6 ± 0.4 µM | 1.6 ± 0.1 µM | 3.5 ± 0.7 µM | 1.04 ± 0.08 µM | 2.2 ± 0.1 µM | 5 ± 0.7 µM | 3.2 ± 0.2 µM | 1.5 ± 0.1 µM | 3.3 ± 0.1 µM | 2.4 ± 0.1 µM |
| CON(CCCCc1ccc(N(CCCl)CCCl)cc1)C1OC(C(=O)O)C(O)C(O)C1O (mixture of isomers) [Compound 26] | 34 ± 2 µM | 8.1 ± 0.6 µM | 14.9 ± 0.1 µM | 4.5 ± 0.5 µM | 8.9 ± 0.4 µM | 16.3 ± 0.5 µM | 17.1 ± 0.8 µM | 4.9 ± 0.7 µM | 14.7 ± 0.8 µM | 12.8 ± 0.5 µM |
| CON(CCCCc1ccc(N(CCCl)CCCl)cc1)C1OC(CO)C(O)C(O)C1NC(C)=O (mixture of isomers) [Compound 27] | 42 ± 3 µM | 19.1 ± 0.8 µM | 12 ± 1 µM | 4.4 ± 0.6 µM | 4.2 ± 0.4 µM | 16.7 ± 0.7 µM | 22 ± 1 µM | 3.8 ± 0.4 µM | 11.8 ± 0.4 µM | 11 ± 1 µM |
| CON(CCCCc1ccc(N(CCCl)CCCl)cc1)C1OC(CN)C(O)C(O)C1O (mixture of isomers) [Compound 34] | 5 ± 0.4 µM | 1.3 ± 0.1 µM | 2.5 ± 0.1 µM | 3.7 ± 0.4 µM | 2.2 ± 0.1 µM | 2.8 ± 0.1 µM | 3.7 ± 0.2 µM | 1.1 ± 0.1 µM | 3.5 ± 0.2 µM | 2.2 ± 0.1 µM |
| CON(CCCCc1ccc(N(CCCl)CCCl)cc1)C1OC(CO)C(O)C(O)C1O (mixture of isomers) [Compound 40] | 8 ± 0.7 µM | 0.88 ± 0.07 µM | 2.9 ± 0.1 µM | 3.2 ± 0.3 µM | 2 ± 0.1 µM | 4.8 ± 0.1 µM | 3.3 ± 0.2 µM | 0.55 ± 0.05 µM | 3.9 ± 0.2 µM | 2.5 ± 0.1 µM |
| CON(CCCCc1ccc(N(CCCl)CCCl)cc1)C1OC(C)C(O)C(O)C1O (stereo not drawn) [Compound 37] | 8.5 ± 0.8 µM | 1.1 ± 0.1 µM | 2.2 ± 0.2 µM | 5.8 ± 0.1 µM | 2.9 ± 0.1 µM | 4.9 ± 0.1 µM | 4.6 ± 0.2 µM | 1.8 ± 0.1 µM | 4.4 ± 0.3 µM | – |

Source: patent US8552176B2 (priority 2010, dated 2013)
